From patent US7067506B2, “Compounds useful for inhibiting Chk1” (ICOS Corporation, priority 2001, dated 2006)

Experiments:
human tumor cell lines = experiment: Enhancement of cell killing by chemotherapeutic drugs (3H-thymidine uptake); assay type: cell-based
Method: To test the hypothesis that inhibition of Chk1 potentiates the killing effect of DNA-damaging agents, cells were incubated in the presence of selective Chk1 inhibitors and either irradiation or chemical DNA-damaging agents. Cells plated at a density of 1000-2000 per well in 96-well microtitre plates were grown in RMPI 1640 containing 10% FBS, 100 U/mL penicillin and 100 μg/mL streptomycin for 18 hours at 37° C. in a humidified incubator with 5% CO2. Cells tested included HeLa, ACHN, 786-0, HCT116, SW620, HT29, Colo205, SK-MEL-5, SK-MEL-28, A549, H322, OVCAR-3, SK-OV-3, MDA-MB-231, MCF-7, PC-3, HL-60, K562, and MOLT4. All cell line designations refer to human cell lines and refer to the following:
Cells were treated with media containing chemotherapeutic drugs alone or chemotherapeutic drugs and Compounds 12 and 29. Cells were incubated for approximately 5 days before growth was measured by determination of levels of ^3H-thymidine uptake. Chemotherapeutic drugs included etoposide, doxorubicin, cisplatin, chlorambucil, 5-fluorouracil (5-FU). The drug concentration necessary to inhibit cell growth to 90% of untreated control cells was defined as the GL90. At concentrations less than 100 μM, Compounds 12 and 29 enhanced the killing of 5-FU from 2- to 10-fold.
Compounds 2 and 12 were tested with additional antimetabolites, including methotrexate, hydroxyurea, 2-chloroadenosine, fludarabine, azacytidine, and gemcitibine for an ability to enhance killing of the agents.

[1] = tested on: Colo205 and HT29 xenograft tumors; experiment: Colon tumor xenograft model; assay type: in vivo, Balb/c (nu/nu) mice; conditions: i.p. 50, 100 or 150 mg/kg; tumor weight by calipers
Method: To test the ability of the Chk1 inhibitors to enhance the killing of tumors by 5-FU in mice, xenograft tumor models using colon tumor cell lines were established. Colo205 and HT29 cells (human colon carcinoma) were used to propagate xenograft tumors in 6-8 week old female […] Balb/c (nu/nu) mice. Mice were maintained in a laminar airflow cabinet under pathogen-free conditions and fed sterile food and water ad libitum. Cell lines were grown to subconfluence in RPMI 1640 media supplemented with 10% FBS, 100 U/mL penicillin, 100 μg/mL streptomycin, and 1.5 mM L-glutamine in a 5% CO2 humidified environment. Single cell suspensions were prepared in CMF-PBS, and cell concentration adjusted to 1×10^8 cells/mL. Mice were inoculated subcutaneously (s.c). on the right flank or right leg with a total of 1×10^7 cells (100 μL).
Mice were randomized (5 mice/group) into four treatment groups and used when tumors reached a weight of 75-100 mg (usually 7-11 days post-inoculation). Tumors were measured with vernier calipers and tumor weights were estimated using the empirically derived formula: tumor weight (mg)=tumor length (mm)×tumor width (mm)^2/3.3. Treatment consisted of i) 100 μL intraperitoneal (i.p). injection of 5-FU at 50 mg/kg, 100 mg/kg, or 150 mg/kg. […] Tumor size was monitored every other day for the duration of the experiment.

Compound: COc1cc(CN(C)Cc2ccccc2)ccc1NC(=O)Nc1cnc(C)cn1 [Compound 340, 1-{4-[(Benzyl-methyl-amino)-methyl]-2-methoxy-phenyl}-3-(5-methyl-pyrazin-2-yl)-urea]
- melting point: 142 to 143 °C

Compound: COc1cc(NC(=O)CCNC2CCCC2)ccc1NC(=O)Nc1cnccn1 [Compound 2, 3-cyclopentylamino-N-[3-methoxy-4-(3-pyrazin-2-yl-ureido)phenyl]-propionamide]
- enhancement of killing of cells to 5-azacytidine (human tumor cell lines; combination with 5-azacytidine): enhance the killing of cells
- enhancement of killing of cells to fludarabine (human tumor cell lines; combination with fludarabine): enhance the killing of cells
- enhancement of killing of cells to hydroxyurea (human tumor cell lines; combination with hydroxyurea): enhance the killing of cells
- enhancement of killing of cells to methotrexate (human tumor cell lines; combination with methotrexate): enhance the killing of cells

Compound: COc1cc(CN)ccc1NC(=O)Nc1cnc(C)cn1 [Compound 342, 1-(4-Aminomethyl-2-methoxy-phenyl)-3-(5-methyl-pyrazin-2-yl)-urea]
- melting point: 168 to 169 °C

Compound: O=c1[nH]cc(F)c(=O)[nH]1 [Compound 5-FU, 5-fluorouracil]
- tumor growth [1]: dose-dependent delay in tumor growth
